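In this assay, cells in 96-well plates receive the compound at five concentrations for 48 hours. Endpoints are linearly interpolated between the surrounding concentrations. At the GI50, growth is halved.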 Calls of active or inactive are those of the source. Rule as the data show it: active = GI50 up to about 1.1 µM and inactive = higher.
How the values were obtained:
Experiment in all cases: inhibition of tumour cell growth, NCI panel, 48 h
HL-60 = tested on: HL-60
UACC-62 = tested on: UACC-62
NCI-H226 = tested on: NCI-H226
SF-268 = tested on: SF-268
KM12 = tested on: KM12
NCI-H522 = tested on: NCI-H522
RXF 393 = tested on: RXF 393
Malme-3M = tested on: Malme-3M
CAKI-1 = tested on: CAKI-1
OVCAR-5 = tested on: OVCAR-5
LOX IMVI = tested on: LOX IMVI
NCI-H23 = tested on: NCI-H23
SNB-19 = tested on: SNB-19
HOP-62 = tested on: HOP-62
OVCAR-8 = tested on: OVCAR-8
SR = tested on: SR
UO-31 = tested on: UO-31
NCI/ADR-RES = tested on: NCI/ADR-RES

Measured: GI50

O=C(Cc1nc2sc3c(c2c(=O)[nH]1)CCCC3)Nc1ccccc1
inactive: HL-60 > 100 µM | UACC-62 > 100 µM | NCI-H226 > 100 µM | SF-268 > 100 µM | KM12 > 100 µM | NCI-H522 > 100 µM | RXF 393 15.5 µM | Malme-3M > 100 µM | CAKI-1 > 100 µM | OVCAR-5 > 100 µM | LOX IMVI > 100 µM | NCI-H23 > 100 µM | SNB-19 81.8 µM | HOP-62 > 100 µM | OVCAR-8 > 100 µM

COC(=O)n1c(CBr)c(Br)c2ccccc21
inactive: HL-60 22.4 µM | UACC-62 28.1 µM | SR 24.8 µM | NCI-H226 13.1 µM | UO-31 18.2 µM | SF-268 25.6 µM | KM12 42.9 µM | NCI-H522 17.2 µM | Malme-3M 79.6 µM | CAKI-1 23.8 µM | OVCAR-5 30.6 µM | NCI-H23 22.7 µM | SNB-19 44.9 µM | HOP-62 21.2 µM | OVCAR-8 48.2 µM

c1ccc2nc3c(nc2c1)sc1ccccc13
inactive: HL-60 > 100 µM | UACC-62 14.9 µM | SR 41.2 µM | NCI-H226 18.6 µM | UO-31 23.7 µM | SF-268 20.7 µM | KM12 47.4 µM | NCI/ADR-RES 39.7 µM | NCI-H522 24.2 µM | Malme-3M 46.9 µM | CAKI-1 9.25 µM | OVCAR-5 60.1 µM | LOX IMVI 19.3 µM | NCI-H23 23.2 µM | SNB-19 14.5 µM | HOP-62 30.7 µM

CC(=O)OC1(Sc2ccccc2)CC2[C@H]3COC(C)(C)O[C@H]3CC[C@@]2(C)CC1=O (stereo not given in full)
inactive: UACC-62 30.1 µM | SR 10 µM | NCI-H226 20.2 µM | UO-31 19 µM | KM12 43.5 µM | NCI-H522 32.3 µM | RXF 393 47.2 µM | Malme-3M 99.3 µM | CAKI-1 48.8 µM | OVCAR-5 > 100 µM | NCI-H23 21.4 µM | SNB-19 71.9 µM | OVCAR-8 74.8 µM

Oc1cccc(-c2cccc(O)n2)n1
inactive: HL-60 > 100 µM | UACC-62 > 100 µM | NCI-H226 > 100 µM | UO-31 > 100 µM | KM12 > 100 µM | RXF 393 > 100 µM | Malme-3M > 100 µM | CAKI-1 > 100 µM | LOX IMVI > 100 µM | NCI-H23 > 100 µM | OVCAR-8 > 100 µM

Sc1cnnc2ccc(Br)cc12
inactive: HL-60 36.8 µM | UACC-62 32.3 µM | SR 52 µM | NCI-H226 49.3 µM | UO-31 34.9 µM | SF-268 58.7 µM | KM12 50.4 µM | NCI/ADR-RES 48.6 µM | NCI-H522 28 µM | RXF 393 22.7 µM | Malme-3M 24.7 µM | CAKI-1 73.1 µM | OVCAR-5 > 100 µM | LOX IMVI 46 µM | NCI-H23 28.8 µM | SNB-19 74.3 µM | HOP-62 > 100 µM | OVCAR-8 59.2 µM

O=c1c(Cl)c(Cl)cnn1CCc1ccncc1
inactive: HL-60 21.8 µM | UACC-62 20.8 µM | SR 20.8 µM | NCI-H226 29.4 µM | UO-31 20.8 µM | SF-268 20.6 µM | KM12 12.5 µM | RXF 393 24.6 µM | Malme-3M 22 µM | CAKI-1 1.98 µM | OVCAR-5 19.5 µM | LOX IMVI 17.8 µM | NCI-H23 17.3 µM | SNB-19 15.6 µM | HOP-62 18.3 µM | OVCAR-8 22.1 µM

CC(C)(CN1CCCCC1)C(=O)/C=C/c1ccc(Cl)cc1
inactive: HL-60 2.15 µM | UACC-62 5.35 µM | SR 2.58 µM | NCI-H226 4.41 µM | UO-31 7.5 µM | SF-268 3.34 µM | KM12 2.95 µM | NCI-H522 2.73 µM | RXF 393 3.86 µM | Malme-3M 5.06 µM | OVCAR-5 11.4 µM | LOX IMVI 2.84 µM | NCI-H23 2.69 µM | SNB-19 5.15 µM | HOP-62 > 10 µM | OVCAR-8 2.32 µM

CCCCCCCCCCCCCCCCCC(=O)OCC(C[As](=O)(O)O)OC(=O)CCCCCCCCCCCCCCCCC (stereo not given)
inactive: HL-60 > 100 µM | UACC-62 > 100 µM | SR 18.4 µM | NCI-H226 24.4 µM | UO-31 > 100 µM | SF-268 43.2 µM | KM12 > 100 µM | NCI-H522 33.1 µM | RXF 393 19.2 µM | Malme-3M 30.1 µM | CAKI-1 65.5 µM | OVCAR-5 > 100 µM | NCI-H23 34 µM | SNB-19 20.2 µM | HOP-62 24.4 µM | OVCAR-8 > 100 µM

CC1O[C@@H]2CCCCC(=O)[C@]2(C)[C@H]1C (stereo not given in full)
inactive: HL-60 > 100 µM | UACC-62 > 100 µM | NCI-H226 > 100 µM | UO-31 > 100 µM | KM12 > 100 µM | RXF 393 70.3 µM | Malme-3M > 100 µM | CAKI-1 > 100 µM | OVCAR-5 > 100 µM | LOX IMVI > 100 µM | SNB-19 > 100 µM | HOP-62 > 100 µM | OVCAR-8 > 100 µM

CC12C3CC4C5CC(C(C53)[C@@H]1NCc1ccccc1)C42 (stereo not given in full)
inactive: HL-60 > 100 µM | UACC-62 > 100 µM | SR > 100 µM | NCI-H226 > 100 µM | UO-31 89.7 µM | SF-268 > 100 µM | KM12 > 100 µM | NCI-H522 36.2 µM | RXF 393 84.9 µM | Malme-3M > 100 µM | CAKI-1 79.8 µM | OVCAR-5 86.9 µM | LOX IMVI > 100 µM | NCI-H23 > 100 µM | SNB-19 > 100 µM | HOP-62 > 100 µM | OVCAR-8 > 100 µM

CN(C)CCC1(C2=CCCC2)CC/C(=C\c2ccc(Cl)cc2)C1=O (stereo not given)
inactive: HL-60 1.6 µM | UACC-62 3.08 µM | SR 4.51 µM | NCI-H226 14.2 µM | UO-31 5.33 µM | SF-268 11.8 µM | KM12 9.91 µM | NCI-H522 6.68 µM | RXF 393 2.31 µM | Malme-3M 6.56 µM | CAKI-1 7.03 µM | OVCAR-5 12.9 µM | LOX IMVI 10.1 µM | NCI-H23 14.5 µM | SNB-19 11.3 µM | HOP-62 16.9 µM | OVCAR-8 12.3 µM

COc1cc2cnc3c4cc(OC)c(OC(C)C)cc4ccc3c2cc1OC
inactive: HL-60 > 100 µM | UACC-62 > 100 µM | SR > 100 µM | NCI-H226 > 100 µM | UO-31 > 100 µM | SF-268 > 100 µM | KM12 > 100 µM | NCI-H522 > 100 µM | RXF 393 > 100 µM | Malme-3M > 100 µM | CAKI-1 > 100 µM | OVCAR-5 > 100 µM | LOX IMVI > 100 µM | NCI-H23 > 100 µM | SNB-19 > 100 µM | HOP-62 > 100 µM | OVCAR-8 > 100 µM

C=CCCCn1ccc2ccccc21
inactive: HL-60 > 100 µM | UACC-62 75.9 µM | SR > 100 µM | NCI-H226 > 100 µM | UO-31 > 100 µM | SF-268 > 100 µM | KM12 > 100 µM | NCI-H522 > 100 µM | RXF 393 > 100 µM | Malme-3M > 100 µM | OVCAR-5 > 100 µM | LOX IMVI > 100 µM | NCI-H23 > 100 µM | SNB-19 > 100 µM | HOP-62 > 100 µM | OVCAR-8 > 100 µM

Cc1cc(C)c2c(c1)Nc1ccccc1P2c1ccccc1 (stereo not given)
inactive: HL-60 23.9 µM | UACC-62 28.9 µM | UO-31 19.1 µM | SF-268 59.6 µM | RXF 393 29.2 µM | Malme-3M 24.5 µM | CAKI-1 11 µM | LOX IMVI 27.2 µM | NCI-H23 25.9 µM | SNB-19 26.7 µM | HOP-62 25.8 µM | OVCAR-8 31.6 µM

Cn1nc(-c2cccc(-c3nn(C)/c(=N\CCO)s3)n2)s/c1=N/CCO
inactive: HL-60 > 100 µM | UACC-62 > 100 µM | SR > 100 µM | NCI-H226 > 100 µM | SF-268 > 100 µM | KM12 > 100 µM | NCI-H522 36.5 µM | RXF 393 > 100 µM | OVCAR-5 > 100 µM | LOX IMVI > 100 µM | NCI-H23 > 100 µM | SNB-19 > 100 µM | HOP-62 > 100 µM | OVCAR-8 > 100 µM

NCCCCC(=O)c1cccnc1
inactive: HL-60 > 100 µM | UACC-62 > 100 µM | SR > 100 µM | UO-31 > 100 µM | SF-268 > 100 µM | KM12 > 100 µM | NCI-H522 > 100 µM | Malme-3M > 100 µM | CAKI-1 > 100 µM | OVCAR-5 > 100 µM | LOX IMVI > 100 µM | NCI-H23 > 100 µM | SNB-19 > 100 µM | HOP-62 > 100 µM | OVCAR-8 > 100 µM

C/C(=N/NS(=O)(=O)c1ccccc1)c1cccc[n+]1[O-]
inactive: HL-60 > 100 µM | UACC-62 > 100 µM | SR > 100 µM | UO-31 > 100 µM | SF-268 > 100 µM | KM12 > 100 µM | NCI-H522 > 100 µM | CAKI-1 > 100 µM | OVCAR-5 > 100 µM | NCI-H23 > 100 µM | SNB-19 > 100 µM | HOP-62 > 100 µM | OVCAR-8 > 100 µM
